Data reported in ChEMBL document CHEMBL1134446, “Polyamine analogue antidiarrheals: a structure-activity study” (J Med Chem, 2001).
Where “and” joins values, the source holds several entries; their conditions need not be identical. Equal values may be shown once.

Legend:
Rattus norvegicus [1] = experiment: Percent reduction was determined by using the ratio of mean of treated animal to that of control animal at a dose of 4.7 mg/kg; type: functional
Canis familiaris [2] = experiment: Spermidine Distribution in liver was determined after DESPM dosing of 4 mg/kg/day for 13 days in dog(cu dose-52.4) and sacrificed at 10 days PLD(cu dose-52 mg/kg); type: ADME, organism-based, Canis lupus familiaris; conditions: in vivo, 240 h
Canis familiaris [3] = experiment: putrescine Distribution in kidney was determined after DESPM dosing of 4.0 mg/kg/day for 13 days in dog and sacrificed at 10 days PLD(cu dose-52 mg/kg); type: ADME, organism-based, Canis lupus familiaris; conditions: in vivo, 240 h
Canis familiaris [4] = experiment: MESPM/MEHSPH Distribution in kidney was determined after DESPM dosing of 6.0 mg/kg/day for 4.5 days in dog(cu dose-52.4) and sacrificed at 75 days PLD(cu dose-27 mg/kg); type: ADME, organism-based, Canis lupus familiaris; conditions: in vivo, 1800 h
Canis familiaris [5] = experiment: putrescine Distribution in liver was determined after DESPM dosing of 8.0 mg/kg/day for 4.5 days in dog(cu dose-52.4) and sacrificed at 10 days PLD(cu dose-36 mg/kg); type: ADME, organism-based, Canis lupus familiaris; conditions: in vivo, 240 h
Canis familiaris [6] = experiment: MESPM/MEHSPH Distribution in liver was determined after DESPM dosing of 8.0 mg/kg/day for 4.5 days in dog(cu dose-52.4) and sacrificed at 10 days PLD(cu dose-36 mg/kg); type: ADME, organism-based, Canis lupus familiaris; conditions: in vivo, 240 h
Rattus norvegicus [7] = experiment: Percent reduction was determined by using the ratio of mean of treated animal to that of control animal at a dose of 23.5 mg/kg; type: functional
Rattus norvegicus [8] = experiment: Percent reduction was determined by using the ratio of mean of treated animal to that of control animal at a dose of 94 mg/kg; type: functional
Canis familiaris [9] = experiment: Spermine Distribution in liver was determined after DESPM dosing of 4 mg/kg/day for 13 days in dog(cu dose-52.4) and sacrificed at 10 days PLD(cu dose-52 mg/kg); type: ADME, organism-based, Canis lupus familiaris; conditions: in vivo, 240 h
Rattus norvegicus [10] = experiment: Percent reduction was determined by using the ratio of mean of treated animal to that of control animal at a dose of 9.4 mg/kg; type: functional
Canis familiaris [11] = experiment: Spermidine Distribution in kidney was determined after DESPM dosing of 8.0 mg/kg/day for 4.5 days in dog(cu dose-52.4) and sacrificed at 75 days PLD(cu dose-36 mg/kg); type: ADME, organism-based, Canis lupus familiaris; conditions: in vivo, 1800 h
Canis familiaris [12] = experiment: Spermine Distribution in kidney was determined after DESPM dosing of 1.87 mg/kg/day for 28 days in dog(cu dose-52.4) and sacrificed at 75 days PLD(cu dose-52.4 mg/kg); type: ADME, organism-based, Canis lupus familiaris; conditions: in vivo, 1800 h
Rattus norvegicus [13] = experiment: Stool output of rat over the 6-h collection period when a dose of 9.4 mg/kg (23.3 administered; type: functional
Canis familiaris [14] = experiment: MESPM/MEHSPH Distribution in liver was determined after DESPM dosing of 8.0 mg/kg/day for 4.5 days in dog(cu dose-52.4) and sacrificed at 75 days PLD(cu dose-36 mg/kg); type: ADME, organism-based, Canis lupus familiaris; conditions: in vivo, 1800 h
Canis familiaris [15] = experiment: MESPM/MEHSPH Distribution in kidney was determined after DESPM dosing of 8.0 mg/kg/day for 4.5 days in dog(cu dose-52.4) and sacrificed at 75 days PLD(cu dose-36 mg/kg); type: ADME, organism-based, Canis lupus familiaris; conditions: in vivo, 1800 h
Canis familiaris [16] = experiment: Spermidine Distribution in liver was determined after DESPM dosing of 6.0 mg/kg/day for 4.5 days in dog(cu dose-52.4) and sacrificed at 10 days PLD(cu dose-27 mg/kg); type: ADME, organism-based, Canis lupus familiaris; conditions: in vivo, 240 h
Canis familiaris [17] = experiment: putrescine Distribution in kidney was determined after DESPM dosing of 4.0 mg/kg/day for 13 days in dog and sacrificed at 75 days PLD(cu dose-52 mg/kg); type: ADME, organism-based, Canis lupus familiaris; conditions: in vivo, 1800 h
Canis familiaris [18] = experiment: MESPM/MEHSPH Distribution in liver was determined after DESPM dosing of 1.87 mg/kg/day for 28 days in dog(cu dose-52.4) and sacrificed at 10 days PLD(cu dose-52.4 mg/kg); type: ADME, organism-based, Canis lupus familiaris; conditions: in vivo, 240 h
Rattus norvegicus [19] = experiment: Weight loss of rat over the 6-h experimental period when a dose of 14.3 mg/kg (35.4 administered; type: functional
Canis familiaris [20] = experiment: putrescine Distribution in liver was determined after DESPM dosing of 6.0 mg/kg/day for 4.5 days in dog(cu dose-52.4) and sacrificed at 10 days PLD(cu dose-27 mg/kg); type: ADME, organism-based, Canis lupus familiaris; conditions: in vivo, 240 h
Canis familiaris [21] = experiment: Spermidine Distribution in kidney was determined after DESPM dosing of 4 mg/kg/day for 13 days in dog(cu dose-52.4) and sacrificed at 10 days PLD(cu dose-52 mg/kg); type: ADME, organism-based, Canis lupus familiaris; conditions: in vivo, 240 h
Canis familiaris [22] = experiment: Spermine Distribution in kidney was determined after DEHSPM dosing of 2.0 mg/kg/day for 29 days in dog(cu dose-52.4) and sacrificed at 10 days PLD(cu dose-58 mg/kg); type: ADME, organism-based, Canis lupus familiaris; conditions: in vivo, 240 h
Canis familiaris [23] = experiment: Distribution in liver was determined after DEHSPM dosing of 2.0 mg/kg/day for 29 days in dog(cu dose-52.4) and sacrificed at 10 days PLD(cu dose-58 mg/kg); type: ADME, organism-based, Canis lupus familiaris; conditions: in vivo, 240 h
Canis familiaris [24] = experiment: Distribution in kidney was determined after DESPM dosing of 8.0 mg/kg/day for 4.5 days in dog(cu dose-52.4) and sacrificed at 75 days PLD(cu dose-36 mg/kg); type: ADME, organism-based, Canis lupus familiaris; conditions: in vivo, 1800 h
Canis familiaris [25] = experiment: Spermidine Distribution in liver was determined after DEHSPM dosing of 2.0 mg/kg/day for 29 days in dog(cu dose-52.4) and sacrificed at 10 days PLD(cu dose-58 mg/kg); type: ADME, organism-based, Canis lupus familiaris; conditions: in vivo, 240 h
Canis familiaris [26] = experiment: MESPM/MEHSPH Distribution in kidney was determined after DEHSPM dosing of 2.0 mg/kg/day for 29 days in dog(cu dose-52.4) and sacrificed at 10 days PLD(cu dose-58 mg/kg); type: ADME, organism-based, Canis lupus familiaris; conditions: in vivo, 240 h
Canis familiaris [27] = experiment: Distribution in liver was determined after DESPM dosing of 1.87 mg/kg/day for 28 days in dog(cu dose-52.4) and sacrificed at 75 days PLD(cu dose-52.4 mg/kg); type: ADME, organism-based, Canis lupus familiaris; conditions: in vivo, 1800 h
Canis familiaris [28] = experiment: Distribution in kidney was determined after DEHSPM dosing of 2.0 mg/kg/day for 29 days in dog(cu dose-52.4) and sacrificed at 10 days PLD(cu dose-58 mg/kg); type: ADME, organism-based, Canis lupus familiaris; conditions: in vivo, 240 h
Canis familiaris [29] = experiment: Distribution in liver was determined after DESPM dosing of 8.0 mg/kg/day for 4.5 days in dog(cu dose-52.4) and sacrificed at 75 days PLD(cu dose-36 mg/kg); type: ADME, organism-based, Canis lupus familiaris; conditions: in vivo, 1800 h
Canis familiaris [30] = experiment: Distribution in kidney was determined after DESPM dosing of 6.0 mg/kg/day for 4.5 days in dog(cu dose-52.4) and sacrificed at 75 days PLD(cu dose-27 mg/kg); type: ADME, organism-based, Canis lupus familiaris; conditions: in vivo, 1800 h
Canis familiaris [31] = experiment: HSPM Distribution in kidney was determined after DEHSPM dosing of 2.0 mg/kg/day for 29 days in dog(cu dose-52.4) and sacrificed at 10 days PLD(cu dose-22 mg/kg); type: ADME, organism-based, Canis lupus familiaris; conditions: in vivo, 240 h
Canis familiaris [32] = experiment: putrescine putrescine Distribution in kidney was determined after DEHSPM dosing of 2.0 mg/kg/day for 29 days in dog(cu dose-52.4) and sacrificed at 10 days PLD(cu dose-58 mg/kg); type: ADME, organism-based, Canis lupus familiaris; conditions: in vivo, 240 h
Canis familiaris [33] = experiment: Spermine Distribution in liver was determined after DEHSPM dosing of 2.0 mg/kg/day for 29 days in dog(cu dose-52.4) and sacrificed at 10 days PLD(cu dose-22 mg/kg); type: ADME, organism-based, Canis lupus familiaris; conditions: in vivo, 240 h

SMILES: CCNCCCNCCCCNCCCNCC [BIS(ETHYL)SPERMINE]
- Reduction (Rattus norvegicus [1]): 37% and 60%
- Wet weight of tissue (Canis familiaris [2]): 176 nM/g
- Wet weight of tissue (Canis familiaris [3]): 12 nM/g
- Wet weight of tissue (Canis familiaris [4]): 0 nM/g
- Wet weight of tissue (Canis familiaris [5]): 109 nM/g
- Wet weight of tissue (Canis familiaris [6]): 21 nM/g
- Reduction (Rattus norvegicus [7]): 59% and 74%
- Reduction (Rattus norvegicus [8]): 81%
- Wet weight of tissue (Canis familiaris [9]): 462 nM/g
- Reduction (Rattus norvegicus [10]): 55% and 92%
- Wet weight of tissue (Canis familiaris [11]): 80 nM/g
- Wet weight of tissue (Canis familiaris [12]): 540 nM/g
- Stool output (Rattus norvegicus [13]): <0.6 g (350g of rat weight)-1
- Wet weight of tissue (Canis familiaris [14]): 0 nM/g
- Wet weight of tissue (Canis familiaris [15]): 0 nM/g
- Wet weight of tissue (Canis familiaris [16]): 181 nM/g
- Wet weight of tissue (Canis familiaris [17]): 7 nM/g
- Wet weight of tissue (Canis familiaris [18]): 7 nM/g
- Weight loss (Rattus norvegicus [19]): <4.4 g
- Wet weight of tissue (Canis familiaris [20]): 87 nM/g
- Wet weight of tissue (Canis familiaris [21]): 82 nM/g

SMILES: CCNCCCCNCCCCNCCCCNCC [DIETHYLHOMOSPERMINE]
- Wet weight of tissue (Canis familiaris [22]): 275 nM/g
- Wet weight of tissue (Canis familiaris [23]): 80 nM/g
- Wet weight of tissue (Canis familiaris [24]): 0 nM/g
- Wet weight of tissue (Canis familiaris [25]): 50 nM/g
- Wet weight of tissue (Canis familiaris [26]): 78 nM/g
- Wet weight of tissue (Canis familiaris [27]): 0 nM/g
- Wet weight of tissue (Canis familiaris [28]): 98 nM/g
- Wet weight of tissue (Canis familiaris [29]): 0 nM/g
- Wet weight of tissue (Canis familiaris [30]): 0 nM/g
- Wet weight of tissue (Canis familiaris [31]): 43 nM/g
- Wet weight of tissue (Canis familiaris [32]): 5 nM/g
- Wet weight of tissue (Canis familiaris [33]): 386 nM/g
